# Results reported in US20030134413A1, “Cell production” (priority 2000, published 2003).
# B1: FGF4: growth factor from the FGF family (protein, UniProt P08620 31-206, looked up)
# Fibroblast growth factor 4: APTAPNGTLEAELERRWESLVALSLARLPVAAQPKEAAVQSGAGDYLLGIKRLRRLYCNVGIGFHLQALPDGRIGGAHADTRDSLLELSPVERGVVSIFGVASRFFVAMSSKGKLYGSPFFTDECTFKEILLPNNYNAYESYKYPGMFIALSKNGKTKKGNRVSPTMKVTHFLPRL
# Legend:
# Assay type in all cases: cell-based, mouse
# EBM^9 explants = experiment: Neural crest formation from EBM^9 explants
# Experimental: Sox 10 probes were transcribed from pSox10E.1 (obtained from Dr. Peter Koopman, IMB, Brisbane, Australia). Anti-sense and sense probes were transcribed from HindIII or BamHI cut pSox10E.1 with […] or T3 RNA polymerase respectively.
# EBM^9 were collected, washed in PBS, treated with 0.5 mM EGTA pH 7.5 for 3 minutes, washed in PBS and disaggregated to small clumps (20-200 cells) by trituration. Cell clumps were allowed to settle and single cells liberated during trituration were removed with the supernatant before plating onto tissue culture grade plasticware which had been coated with cellular fibronectin (1 μg/cm^2; obtained from M. D. Bettess, Department of Biochemistry, Adelaide University, Australia) and allowed to dry. Cells were cultured in Hams F12 containing 3% FCS and 10 ng/ml FGF2 and supplemented with either 0.1% 25 μM staurosporine (Sigma) in DMSO (final concentration, 25 nM) or 0.1% DMSO. Cellular aggregates were allowed to differentiate for 48 hours before fixation in 4% PFA for 30 minutes.
# ES cells [1] = experiment: Morphology of ES cell aggregates in suspension culture; details: medium supplemented with 100 units of LIF; data not shown
# Experimental: (§1) All cell aggregates were formed from single cell suspensions (1×10^5 cells/ml) of ES or EPL cells cultured in bacterial petri dishes. ES cell and EPL cell embryoid bodies (EB and EPLEB respectively) were formed as described in Lake et al. (2000). EBM, cell aggregates formed and maintained in MEDII, were formed from ES cells aggregated in IC:DMEM (DMEM (Gibco BRL #12800) with 10% foetal calf serum (FCS; Commonwealth Serum Laboratories), […] gentamycin, 1 mM L-glutamine and 0.1 mM B-mercaptoethanol (B-ME)) supplemented with 50% MEDII. Aggregates were divided 1 in 2 on days 2 and 4, and medium was changed on days 2 and 4 and then daily until collection. […] The time in days from formation of aggregates was denoted by superscript with the day of formation denoted as day 0. For example, EBM 5 days after formation are represented as EBM^5.
# For continued suspension culture of EB and EBM, aggregates on day 7 were transferred to serum free medium (50% DMEM, 50% Hams F12 (Gibco BRL # 11765) supplemented with 1× ITSS supplement (Boehringer Mannhiem) and 10 ng/ml FGF2 (Peprotech Inc.)).
# EB^4 and EBM^4 were fixed with 4% PFA for 30 minutes before embedding in paraffin wax and sectioning as described in Hogan et al., 1994. 7 μm sections were stained with haematoxylin:eosin as described by Kaufman, 1992 or with Hoescht […] (5 μg/ml) in PBS; Sigma) for 5 minutes.
# ES cells [2] = experiment: Differentiation potential of seeded ES cell aggregates (neurons, beating cardiocytes); details: 10-20 ng/ml added to the medium from day 4
# Experimental: as §1
# For adherent culture, aggregates were seeded onto gelatin treated tissue culture grade plasticware (Falcon) on day 7 of development in 500 μl DMEM supplemented with 10% FCS (Commonwealth serum Laboratories). […]
# EB^7 and EBM^7 were seeded as described above and assessed on days 8, 10, 12 and 14 for the presence of neurons, identified morphologically by the presence of axonal projections (and confirmed by the expression of NF200; data not shown), and beating cardiocytes, identified morphologically by rhythmical contraction of cells within the aggregate.
molecule,measurement,setting,value
CN[C@@H]1C[C@H]2O[C@@](C)([C@@H]1OC)n1c3ccccc3c3c4c(c5c6ccccc6n2c5c31)C(=O)NC4 [staurosporine],Sox10 expression by in situ hybridisation,"EBM^9 explants; 25 nM, 48 hours culture",observed in all cells
same,morphology of EBM explants,"EBM^9 explants; 25 nM, within three hours of seeding",surrounded by a halo of differentiating cells
same,concentration required for uniform differentiation,EBM^9 explants; data not shown,greater than 10 nM
LIF: cytokine leukaemia inhibitory factor,morphology and gene expression profile of ES cell aggregates,ES cells [1],did not duplicate the morphology or gene expression profile of EBM
B1,influence on the outcome of differentiation,ES cells [2],did not influence the outcome of differentiation
